Laboratory results taken from patent US8193192B2, “Heterocyclic FXR binding compounds” (Phenex Pharmaceuticals AG, priority 2006, dated 2012).
≈ marks a conversion by molar mass, not a printed value.

Columns and labels:
PAMPA permeability assay = format: in vitro ADME; conditions: % of compound found in the receiver compartment after 16 hours; PBS pH 7.4, 5% DMSO, 23° C.
Procedure: Artificial membrane permeability was determined as follows: Tested compounds were dissolved to 10 mM in 100% DMSO. Permeability of compounds was measured in PBS (pH 7.4), 5% DMSO at 23° C. Safire (Tecan) plate reader was used for measurement the UV/Vis absorption. Protocol: Dilute stocks of tested compounds and controls with PBS to 1.67 mM and mix well by pipetting, add 280 μl of PBS, 5% DMSO to acceptor plate, add 5 μl of 2% L-α-Phosphatidylcholine suspension in dodecane to the membrane of donor plate. Immediately add 98 μl of PBS to donor plate and make the sandwich with acceptor plate. Add 42 μl of tested compounds and controls dilutions to […], cover the plate, place into camera and incubate for 16 hours. Make the equilibrium plate, add 225 μl of PBS, 3.7% DMSO and 25 μl of tested compounds and controls dilutions to UV plate. After 16 hours pull the donor plate out and transfer 250 μl from acceptor plate to UV plate. Scan UV plate on Safire (Tecan) plate reader from […]. Permeability is reported in % of compound found in the receiver compartment after the incubation period. Applying this protocol, PAMPA permeabilities of examples and reference compounds were determined as follows (see Table 4): […]

[1] = Microsomal stability assay; format: in vitro ADME; conditions: pH 7.4; mouse liver microsomes, 37° C.
Procedure: Microsomal Stability Assay
In vitro assays were performed to evaluate the metabolic stability of test items in liver microsomes originating from mouse. Preparation of working standards of test items: Working solutions were prepared for each calibration level by appropriate dilution of the corresponding stock solution, depending on each compound's solubility in acetonitrile or acetonitrile/water. Calibration standards were prepared by spiking 196 μl standard matrix with 4 μl of the corresponding working solution. The standard matrix consists of 0.15 mg/ml of microsomal protein in phosphate buffer (100 mM pH 7.4), the final standard solutions contain 2% acetonitrile. The samples and standard solutions were extracted with ethyl acetate, isolation of the compounds was performed by addition of 600 μl ethyl acetate containing the internal standard (0.1 μM) to 200 μl sample and calibration standard. After vigorously shaking (10 minutes) and centrifugation (5000 g) the aqueous phase was separated by freezing in an acetone/dry ice bath and the organic phase is evaporated to dryness using a vacuum centrifuge. Samples were reconstituted in 200 μl acetonitrile/water mix (1:1 v/v) and subsequently subjected to LC-MS/MS. The incubation solution (180 μl) consisted of 90 μl of a microsomal suspension of 0.33 mg/ml of protein in phosphate buffer 100 mM pH 7.4 and 90 μl NADP-regenerating system. The reaction was initiated by the addition of 20 μl of test compound (in 20% acetonitrile) to the preincubated microsomes/buffer mix at 37° C. 200 μl samples were removed from the incubation after 0, 5, 10, and 30 minutes and processed for ethyl acetate extraction as described above. Negative controls using boiled microsomes (boiling water bath, 25 minutes) without regenerating system were run in parallel. The amount of compound in the samples is expressed as percentage of remaining compound compared to time point zero (=100%). These percentages were plotted against the corresponding time points. Intrinsic clearance (CLint) and half-life (t1/2) estimates were determined using the rate of parent disappearance and following formula (1) and (2). (1) CLint=(−k)×V×fu. (2) t1/2=ln 2/−k. Where CLint=intrinsic clearance [μl/min/mg protein], t1/2=half life [min], k=slope from the linear regression of log [test compound] versus time plot [1/min]. V=6666.7; fu=unbound fraction in the blood. Applying this protocol gave microsomal stabilities for examples and reference compounds as listed below in Table 6: […]

[2] = Aqueous solubility assay, Protocol A, nephelometry method; format: physicochemical; conditions: PBS with 5% DMSO, aqueous with cosolvent or surfactant or cyclodextrin, kinetic from dmso stock, PBS pH 7.4, 5% DMSO, 23° C.
Procedure: Aqueous solubility of compounds was determined by nephelometry or by shake-flask method as follows:
Protocol A, Nephelometry Method:
Solubility of compounds was measured in PBS (pH 7.4), 5% DMSO at 23° C. Nepheloskan Ascent (Thermo Electron Corporation) nephelometer was used for measurement of light scattering. Tested compounds were dissolved in DMSO to 10 mM. Prior to measurement the compounds were further diluted with PBS in the wells to final compound concentrations of 100, 70, 50, 35, 25, 17, 12 and <10 μg/ml.
The plates were incubated at room temperature for 24 hours to reach equilibrium and the scattered light was measured. Assay validation: Aqueous solubility of acetylsalicylic acid was determined to validate the assay. […] Aqueous solubilities of examples and reference compounds are listed below in Table 2.

PAMPA Permeability (PAMPA permeability assay) [%]	half-life [1] [min]	microsomal CLint [1] [µL/min/mg]	solubility at 24 h [2] [µM]	SMILES
32	22	207	24 (≈ 12 µg/mL)	CC(C)c1onc(-c2c(Cl)cccc2Cl)c1COc1ccc(Oc2ccc(C(=O)O)cc2)cc1 [Compound A, reference compound]
	30	153		Cc1cc(OCc2c(-c3c(Cl)cccc3Cl)noc2C(C)C)cnc1Oc1ccc(C(=O)O)cc1 [Example 3, 4-(5-((3-(2,6-Dichlorophenyl)-5-isopropylisoxazol-4-yl)methoxy)-3-methylpyridin-2-yloxy)benzoic acid]
